From PubChem BioAssay (NCI)
“And” between values parts separate entries of the source, which are not always exact repeats. Equal entries are not always repeated.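 Each compound was tested at five concentrations against cells in 96-well plates for 48 hours. GI50: concentration for 50% inhibition of growth. TGI is the concentration that stops growth completely.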

Legend:
Test in all cases: inhibition of tumour cell growth, NCI panel, 48 h
[1] = test system: 786-0 renal
[2] = test system: HOP-62 NSCLC
[3] = test system: HT29 colon
[4] = test system: M14 melanoma
[5] = test system: MDA-MB-231 breast
[6] = test system: MOLT-4 leukemia
[7] = test system: NCI-H522 lung
[8] = test system: OVCAR-3 ovarian
[9] = test system: SF-268 CNS
[10] = test system: UACC-62 melanoma

SMILES | GI50 [1] | TGI [1] | GI50 [2] | TGI [2] | GI50 [3] | TGI [3] | GI50 [4] | TGI [4] | GI50 [5] | TGI [5] | GI50 [6] | TGI [6] | GI50 [7] | TGI [7] | GI50 [8] | TGI [8] | GI50 [9] | TGI [9] | GI50 [10] | TGI [10]
COc1ccc(-c2cc3c4c(nc5ccccc5c4c2)CC(c2cc(OC)c(OC)c(OC)c2)O3)cc1 (stereo not given) | 1.92 µM | 3.74 µM | 2.98 µM | 12.5 µM | 3.07 µM | > 100 µM | 2.96 µM | 28.7 µM | 2.15 µM | 7.16 µM | > 100 µM | > 100 µM | 2.63 µM | 13.9 µM | 1.86 µM | 4.28 µM | 1.72 µM | 5.48 µM | 3.54 µM | 20.1 µM
Cc1ccc(NS(=O)(=O)c2ccc(-c3cnc(C4CC4)o3)cc2)cc1 | 6.4 µM | 21 µM | 3.13 µM | 16.7 µM | 2.34 µM | 11 µM | 1.56 µM | 11.7 µM | 4.5 µM | 18.8 µM | 3.22 µM | 20.9 µM | 2.43 µM | 17.4 µM | 2.1 µM | 6.13 µM | 6.19 µM | 21.3 µM | 3.06 µM | 14.9 µM
COc1cc(-c2c3c(cn2S(=O)(=O)c2ccccc2)-c2nc(N)sc2CC3)cc(OC)c1OC | 1.71 µM | 19.7 µM | 2.05 µM | 63.2 µM | 0.384 µM | 3.44 µM | 0.612 µM | > 100 µM | 1.1 µM | 79.1 µM | 0.701 µM | 43.1 µM | 0.349 µM | 6.83 µM | 0.414 µM | 6.9 µM | 4.46 µM | > 100 µM | 0.729 µM | > 100 µM
C=CC1CC12C(=O)C1OC2(C)C2C(=O)c3ccccc3C(=O)C12 (stereo not given) | > 52.5 µM | > 100 µM | > 68 µM | > 100 µM | > 61.6 µM | > 100 µM | > 100 µM | > 100 µM | 24.8 µM | > 100 µM | 1.54 µM | 11.1 µM | > 61.7 µM | > 100 µM | 13.9 µM | 60.5 µM | > 54 µM | > 92.5 µM | 35.1 µM | > 100 µM
Cn1ncc2cc(-c3cnc(N)c(Cl)c3N3CCC4(CCNC4=O)CC3)ccc21 | 11.2 µM | > 100 µM | 21.6 µM | > 100 µM | 46.2 µM | > 100 µM | 41.4 µM | > 100 µM | 23 µM | 86.3 µM | 20.7 µM | > 100 µM | 60.7 µM | > 100 µM | 42.9 µM | > 100 µM | 21.3 µM | > 100 µM | 30.7 µM | > 100 µM
COc1ccccc1-c1cc2c3c(nc4ccccc42)C(=O)c2cccnc2-c3n1 | 15.5 µM | 29.7 µM | 14.4 µM | 48.2 µM | 15.3 µM | 29.9 µM | 5.1 µM | 17.3 µM | 18.2 µM | > 56.7 µM | > 42.6 µM | > 100 µM | 1.65 µM | 5.23 µM | 1.56 µM | > 37.5 µM | 17.6 µM | 38.9 µM | 16.4 µM | 36.7 µM
COc1ccc2c(c1)Oc1nc(N)c(C#N)c(N)c1C2Sc1ccc(SC)cc1 (stereo not given) | 1.66 µM | 3.06 µM | 1.83 µM | 3.49 µM | 2.2 µM | 4.36 µM | 1.76 µM | 3.33 µM | 1.85 µM | 3.38 µM | 2.83 µM | 6.87 µM | 1.65 µM | 3.08 µM | 1.75 µM | 3.19 µM | 1.7 µM | 3.29 µM | 1.81 µM | 3.33 µM
CC1OCC2OC(C)OC(C3C4=C(CC(C)(C)CC4=O)OC4=C3C(=O)CC(C)(C)C4)C2O1 (stereo not given) |  | > 100 µM |  | > 100 µM |  | > 100 µM |  | > 100 µM |  | > 100 µM |  | > 100 µM |  | > 100 µM |  | > 100 µM |  | > 100 µM |  | > 100 µM
O=C1C=C(SCCO)C(=O)c2ccccc21 | 2.27 µM | 6.46 µM | 1.7 µM | 3.55 µM | 2.58 µM | 6.73 µM | 1.78 µM | 3.36 µM | 1.42 µM | 3.89 µM | 1.26 µM | 4.51 µM | 1.89 µM | 3.97 µM | 1.37 µM | 2.68 µM | 1.92 µM | 5.07 µM | 1.6 µM | 3.04 µM
Cn1cc(-c2cc3c(Nc4ccc(CC(=O)Nc5cc(C(C)(C)C)on5)cc4)ncnc3[nH]2)cn1 | 0.995 µM and 0.536 µM | 5.05 µM and 4.71 µM | 0.876 µM and 0.444 µM | 4.97 µM and 4.58 µM | 1.1 µM and 1.11 µM | 6.95 µM and 9.63 µM | 0.961 µM and 0.69 µM | 3.02 µM and 2.3 µM | 0.797 µM and 0.786 µM | 5.17 µM and 8.35 µM | 0.401 µM and 0.324 µM | 11.4 µM and 2.38 µM | 0.469 µM and 0.528 µM | 3.33 µM and 4.48 µM | 0.496 µM and 0.36 µM | 2.48 µM and 2.54 µM | 0.444 µM and 0.348 µM | 1.67 µM and 1.18 µM | 0.583 µM and 0.455 µM | 1.71 µM and 1.9 µM
COc1ccc(-c2nc(-c3nc4ccc(F)cc4[nH]3)cc3c2[nH]c2ccccc23)cc1 | 3.33 µM | > 100 µM | 3.22 µM | 74.7 µM | 2.96 µM | 9.01 µM | 2.54 µM | 7.12 µM | 2.3 µM | 8.95 µM | 1.56 µM | 6.14 µM | 2 µM | 5.97 µM | 2.23 µM | 5.01 µM | 3.24 µM | > 100 µM | 1.86 µM | 4.25 µM
